Earlier results, collected in patent publication US20060128792A1, “Deguelin as a chemopreventive agent for lung cancer” (priority 2002, published 2006).
Where two headings read alike, the source gives them in different places.

Tested on: ovarian, breast and lung cancers
Conditions: cited from earlier work

SMILES: CC(=O)O[C@H]1C(=O)[C@@]2(C)[C@H]([C@H](OC(=O)c3ccccc3)[C@]3(O)C[C@H](OC(=O)[C@H](O)[C@@H](NC(=O)c4ccccc4)c4ccccc4)C(C)=C1C3(C)C)[C@]1(OC(C)=O)CO[C@@H]1C[C@@H]2O [taxol, Paclitaxel]
- response rate (advanced drug refractory ovarian cancer): 19-36%
- response rate (previously treated metastatic breast cancer): 27-62%
- response rate (various lung cancers): 21-37%
